The structures appear in SMILES notation.

In the first assay the target is T1, human mPGES-1 (Homo sapiens, UniProt O14684).
T1 construct: made in house; host or cells: FreeStyle CHO-S cells (Chinese hamster ovary), transient transfection with pcDNA3.1(+)/human mPGES-1; microsome fraction used
T1 sequence (O14684 1-152): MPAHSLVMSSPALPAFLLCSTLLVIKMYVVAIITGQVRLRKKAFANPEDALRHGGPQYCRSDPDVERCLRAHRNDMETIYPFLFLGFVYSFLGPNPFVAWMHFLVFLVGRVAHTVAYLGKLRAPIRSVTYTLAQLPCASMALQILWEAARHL
The assay can be described thus: Evaluation of human mPGES-1 enzyme inhibitory activity (PGE2 measured by HTRF, microsome fraction of CHO-S cells expressing human mPGES-1). Conditions: IC50 value; microsome fraction of CHO-S cells expressing human mPGES-1, PGE2 by HTRF. It is filed as biochemical. The essentials: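 Enzyme source: microsomes from CHO-S cells transfected with human mPGES-1 and cultured 48 hr, diluted to 5 μg/mL protein in reduced GSH (12.5 mmol/L KPB solution). Test articles were in 0.1 mol/L potassium phosphate pH 7.4, final DMSO 2% (v/v). PGE2 formed was quantified by HTRF.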
With `CN(Cc1ccc(Cl)c(-c2nc(O)nc(-c3ccccc3)n2)c1)C(=O)C1Cc2ccccc2C1` [Example 1-246], the IC50 (as a rule, the concentration that gives 50% inhibition) stood at 307 nM.

In the case of `O=C(NCc1ccc(Cl)c(-c2nc(O)nc(-c3ccccc3)n2)c1)C1(CO)CCCCC1` [Example 1-247], the IC50 worked out at 11 nM.

In the case of `O=C1N(Cc2ccc(Cl)c(-c3nc(O)nc(-c4ccccc4)n3)c2)CC12CCCCC2` [Example 1-248], the IC50 was found to be 16 nM. The IC50 values of the last two compounds are within 1.5-fold of each other.

In the case of `CN(Cc1ccc(Cl)c(-c2nc(O)nc(-c3ccccc3)n2)c1)C(=O)C(C)(C)Cc1ccccc1` [Example 1-249], inhibition was half-maximal at 226 nM (IC50).

On to `CCC(CC)(CO)C(=O)NCc1ccc(Cl)c(-c2nc(O)nc(-c3ccccc3)n2)c1` [Example 1-250], for which the IC50 is 12 nM.

As to `CCC1(CC)CN(Cc2ccc(Cl)c(-c3nc(O)nc(-c4ccccc4)n3)c2)C1=O` [Example 1-251], inhibition was half-maximal at 18 nM (IC50).

`CCO[C@](C)(C(=O)N(C)Cc1ccc(Cl)c(-c2nc(O)nc(-c3ccccc3)n2)c1)C(F)(F)F` [Example 1-252] had an IC50 of 511 nM.

`CCO[C@@](C)(C(=O)N(C)Cc1ccc(Cl)c(-c2nc(O)nc(-c3ccccc3)n2)c1)C(F)(F)F` [Example 1-253] displayed an IC50 of 791 nM.

Turning to `O=C(NCc1ccc(Cl)c(-c2nc(O)nc(-c3ccccc3)n2)c1)C1(CO)CCCC1` [Example 1-254], it took 30 nM to reach half-maximal inhibition (IC50).

As for `O=C1N(Cc2ccc(Cl)c(-c3nc(O)nc(-c4ccccc4)n3)c2)CC12CCCC2` [Example 1-255], the half-inhibitory concentration (IC50) turned out to be 45 nM.

`CC1(C)C(=O)N(Cc2ccc(Cl)c(-c3nc(O)nc(-c4ccccc4)n3)c2)c2ccccc21` [Example 1-258, 1-[4-chloro-3-(4-hydroxy-6-phenyl-1,3,5-triazin-2-yl)-benzyl]-3,3-dimethyl-1,3-dihydroindol-2-one] showed an IC50 of 1900 nM. This IC50 lies about 42-fold higher than the previous one.

`CCCC(CO)(CCC)C(=O)NCc1ccc(Cl)c(-c2nc(O)nc(-c3ccccc3)n2)c1` [Example 1-259] gave an IC50 of 176 nM.

In the case of `CCCC1(CCC)CN(Cc2ccc(Cl)c(-c3nc(O)nc(-c4ccccc4)n3)c2)C1=O` [Example 1-260], 147 nM corresponded to half-maximal inhibition (IC50).

`CC1(C(=O)NCc2ccc(Cl)c(-c3nc(O)nc(-c4ccccc4)n3)c2)Cc2ccccc2C1` [Example 1-262]: half-maximal inhibition (IC50) was put at 7 nM. This IC50 is about 21-fold lower than that of the compound before.

For the compound `CCN(Cc1ccc(Cl)c(-c2nc(O)nc(-c3ccccc3)n2)c1)C(=O)C(C)(C)C(F)(F)F` [Example 1-263, N-[4-chloro-3-(4-hydroxy-6-phenyl-1,3,5-triazin-2-yl)benzyl]-N-ethyl-3,3,3-trifluoro-2,2-dimethylpropionamide], the midpoint of inhibition, the IC50, lay at 702 nM. This IC50 lies about 100-fold higher than the previous one.

`CN(Cc1ccc(Cl)c(-c2nc(O)nc(-c3ccccc3)n2)c1)C(=O)C1(C)Cc2ccccc2C1` [Example 1-264] returned an IC50 of 163 nM.

For `CC(C)(C)OC(=O)N1CCC2(CC1)CCN(Cc1ccc(Cl)c(-c3nc(O)nc(-c4ccccc4)n3)c1)C2=O` [Example 1-265], the IC50 worked out at 56 nM.

For the compound `Cc1cccc(C)c1-c1nc(O)nc(-c2ccc(C(F)(F)F)cc2)n1` [Example 2-1], inhibition was half-maximal at 283 nM (IC50).

`Cc1cccc(C)c1-c1nc(O)nc(-c2ccccc2)n1` [Example 2-2] had a 50% inhibitory concentration (IC50) of 21300 nM.

Compound `Cc1cc(C(F)(F)F)ccc1-c1nc(O)nc(-c2c(C)cccc2C)n1` [Example 2-3] showed an IC50 of 14700 nM.

Take `COc1cccc(Cl)c1-c1nc(O)nc(-c2ccc(C(F)(F)F)cc2)n1` [Example 2-4]: inhibition was half-maximal at 66 nM (IC50).

Take `Cc1cccc(C)c1-c1nc(O)nc(-c2ccc(OCc3ccccc3)cc2)n1` [Example 2-5]: half-maximal inhibition (IC50) required 101 nM. Against the preceding compound, the IC50 is about 1.5-fold higher.

For `Cc1cccc(C)c1-c1nc(O)nc(-c2ccc(C(C)(C)C)cc2)n1` [Example 2-7], the IC50 was determined as 3500 nM. Compared with the last compound, the IC50 is about 35-fold higher.

Compound `Cc1cccc(C)c1-c1nc(O)nc(-c2ccc(C(C)C)cc2)n1` [Example 2-8] yielded an IC50 of 1900 nM.

Compound `Cc1cccc(C)c1-c1nc(O)nc(-c2ccc(C(F)(F)F)cc2F)n1` [Example 2-9] returned an IC50 of 6400 nM.

`Oc1nc(-c2ccc(C(F)(F)F)cc2)nc(-c2c(F)cccc2Cl)n1` [Example 2-10] registered an IC50 of 73 nM.

In the case of `Cc1cccc(C)c1-c1nc(O)nc(-c2ccc(C#Cc3ccccc3)cc2)n1` [Example 2-11], inhibition was half-maximal at 6 nM (IC50).

`Cc1cccc(C)c1-c1nc(O)nc(-c2ccc(CCc3ccccc3)cc2)n1` [Example 2-12] had an IC50 of 141 nM.

In turn, `Cc1cccc(-c2nc(O)nc(-c3c(C)cccc3C)n2)c1` [Example 2-13] displayed an IC50 of 23100 nM.

`COc1cccc(-c2nc(O)nc(-c3c(C)cccc3C)n2)c1` [Example 2-14] displayed an IC50 of 14300 nM.

Compound `Cc1cccc(C)c1-c1nc(O)nc(-c2cccc(F)c2)n1` [Example 2-15] returned an IC50 of 16400 nM. This IC50 and that of the compound before are within 1.5-fold of each other.

In turn, `Oc1nc(-c2ccc(C(F)(F)F)cc2)nc(-c2c(O)cccc2Cl)n1` [Example 2-16] registered an IC50 of 412 nM.

Regarding `CCOc1cccc(Cl)c1-c1nc(O)nc(-c2ccc(C(F)(F)F)cc2)n1` [Example 2-17], the midpoint of inhibition, the IC50, lay at 39 nM.

Regarding `Cc1cccc(C)c1-c1nc(O)nc(-c2ccc(C#CC3CCCCC3)cc2)n1` [Example 2-18], half-maximal inhibition (IC50) required 8 nM.

Consider `Cc1cccc(Cl)c1-c1nc(O)nc(-c2ccc(C(F)(F)F)cc2)n1` [Example 2-19], for which the midpoint of inhibition, the IC50, lay at 211 nM.

For `CCCOc1cccc(Cl)c1-c1nc(O)nc(-c2ccc(C(F)(F)F)cc2)n1` [Example 2-20], the midpoint of inhibition, the IC50, lay at 52 nM.

`CC(C)Oc1cccc(Cl)c1-c1nc(O)nc(-c2ccc(C(F)(F)F)cc2)n1` [Example 2-21] yielded an IC50 of 341 nM.

Consider `OCCOc1cccc(Cl)c1-c1nc(O)nc(-c2ccc(C(F)(F)F)cc2)n1` [Example 2-22], for which the concentration for half-maximal inhibition (IC50) was 219 nM.

Regarding `OCCCOc1cccc(Cl)c1-c1nc(O)nc(-c2ccc(C(F)(F)F)cc2)n1` [Example 2-23], the IC50 stood at 155 nM. This IC50 and that of the compound before are within 1.5-fold of each other.

`Cc1cccc(C)c1-c1nc(O)nc(-c2ccc(F)cc2)n1` [Example 2-24] showed an IC50 of 2400 nM. This IC50 is about 15-fold higher than that of the compound before.

For the compound `Cc1cccc(C)c1-c1nc(O)nc(-c2ccc(Cl)cc2)n1` [Example 2-25], half-maximal inhibition (IC50) required 249 nM.

The compound `Cc1ccc(-c2nc(O)nc(-c3c(C)cccc3C)n2)cc1` [Example 2-26] yielded an IC50 of 2700 nM.

Consider `COc1ccc(-c2nc(O)nc(-c3c(C)cccc3C)n2)cc1` [Example 2-27], for which the IC50 worked out at 7700 nM. Against the preceding compound, the IC50 is about 2.9-fold higher.

As to `Cc1cccc(C)c1-c1nc(O)nc(-c2cccc(C(F)(F)F)c2)n1` [Example 2-28], half-maximal inhibition (IC50) required 3700 nM.

Turning to `Cc1cccc(C)c1-c1nc(O)nc(-c2cccc(OCc3ccccc3)c2)n1` [Example 2-29], half-maximal inhibition (IC50) required 503 nM.

Turning to `CCCCOc1cccc(Cl)c1-c1nc(O)nc(-c2ccc(C(F)(F)F)cc2)n1` [Example 2-31], the IC50 is 31 nM. Against the preceding compound, the IC50 is about 16-fold lower.

Regarding `Oc1nc(-c2ccc(C(F)(F)F)cc2)nc(-c2c(Cl)cccc2OCc2ccccc2)n1` [Example 2-32], the IC50 was 14 nM.

Consider `CC(C)COc1cccc(Cl)c1-c1nc(O)nc(-c2ccc(C(F)(F)F)cc2)n1` [Example 2-33], for which 102 nM corresponded to half-maximal inhibition (IC50).

In turn, `COCCOc1cccc(Cl)c1-c1nc(O)nc(-c2ccc(C(F)(F)F)cc2)n1` [Example 2-34] had an IC50 of 163 nM.

In the case of `COc1cccc(Cl)c1-c1nc(O)nc(-c2ccc(OCc3ccccc3)cc2)n1` [Example 2-35], half-maximal inhibition (IC50) was put at 17 nM.

As to `Oc1nc(-c2ccc(C(F)(F)F)cc2)nc(-c2c(Cl)cccc2OCC(F)(F)F)n1` [Example 2-36], the IC50 is 53 nM. Compared with the last compound, the IC50 is about 3.1-fold higher.

As for `Cc1cccc(C)c1-c1nc(O)nc(-c2ccc(OCC3CCCCC3)cc2)n1` [Example 2-37], the half-inhibitory concentration (IC50) came out at 41 nM.

Turning to `Cc1cccc(C)c1-c1nc(O)nc(-c2ccc(OC(C)C)cc2)n1` [Example 2-38], the 50% inhibitory concentration (IC50) was determined as 1000 nM.

The compound `Cc1cccc(C)c1-c1nc(O)nc(-c2ccc(CC(C)C)cc2)n1` [Example 2-39] came in with an IC50 of 450 nM.

In turn, `CCOc1ccc(-c2nc(O)nc(-c3c(C)cccc3C)n2)cc1` [Example 2-40] yielded an IC50 of 1300 nM.

In turn, `CCCOc1ccc(-c2nc(O)nc(-c3c(C)cccc3C)n2)cc1` [Example 2-41] showed an IC50 of 429 nM.

In turn, `Cc1cccc(C)c1-c1nc(O)nc(-c2ccc(OCC(C)C)cc2)n1` [Example 2-42] gave an IC50 of 239 nM.

The compound `Cc1cccc(C)c1-c1nc(O)nc(-c2ccc(O[C@@H](C)c3ccccc3)cc2)n1` [Example 2-43] registered an IC50 of 570 nM.

`Cc1cccc(C)c1-c1nc(O)nc(-c2ccc(O[C@H](C)c3ccccc3)cc2)n1` [Example 2-44] registered a 50% inhibitory concentration (IC50) of 563 nM.

Compound `Oc1nc(-c2ccc(C(F)(F)F)cc2)nc(-c2c(Cl)cccc2OCc2ccccn2)n1` [Example 2-45] gave an IC50 of 12 nM.

`Cc1cccc(C)c1-c1nc(O)nc(-c2ccc(OC3CCCCC3)cc2)n1` [Example 2-46] displayed an IC50 of 494 nM.

`Cc1cccc(C)c1-c1nc(O)nc(-c2ccc(OC3CCC(C)(C)CC3)cc2)n1` [Example 2-47] showed an IC50 of 295 nM.

In turn, `Cc1cccc(C)c1-c1nc(O)nc(-c2ccc(Cl)c(OCc3ccccc3)c2)n1` [Example 2-48] registered an IC50 of 19 nM.

`CCc1ccccc1COc1cccc(Cl)c1-c1nc(O)nc(-c2ccc(C(F)(F)F)cc2)n1` [Example 2-49]: the IC50 came out at 14 nM.

`Cc1cccc(C)c1-c1nc(O)nc(-c2ccc(OCC3CCCC3)cc2)n1` [Example 2-50] gave an IC50 of 61 nM.

With `Cc1cccc(C)c1-c1nc(O)nc(-c2ccc(OCC3CCC3)cc2)n1` [Example 2-51], half-maximal inhibition (IC50) required 90 nM.

The assay is the same for the next values; noted with them: at 30 μM test article.
For `CCC(=O)N(CC)Cc1ccc(Cl)c(-c2nc(O)nc(-c3ccccc3)n2)c1` [Example 1-261], 30 µM produced 44% inhibition.

For `Cc1cccc(C)c1-c1nc(O)nc(-c2ccc(O)cc2)n1` [Example 2-6], testing at 30 µM gave an inhibition of 28%.

`Cc1cccc(C)c1-c1nc(O)nc(-c2cccc(O)c2)n1` [Example 2-30]: 30 µM produced 43% inhibition.

(Values after patent US12398111B2, “Triazine compounds and pharmaceutical use thereof” (Japan Tobacco Inc., priority 2014, dated 2025).)
